Tests used:
Test in all cases: Long term contact efficacy against mosquitos (example 12)
Type in all cases: in vivo
Details in all cases: glazed tiles, 1 day after treatment
Anopheles funestus = test system: Anopheles funestus
Source text: (§1) Glazed tiles have been treated with the WP 10 formulations as described in example 9 based on 4-[(5S)-5-(3,5-dichloro-4-fluorophenyl)-5-(trifluoromethyl)-4,5-dihydro-1,2-oxazol-3-yl]-N-[(4R)-2-ethyl-3-oxo-1,2-oxazolidin-4-yl]-2-methylbenzamide as described in Example 4 and then stored at ambient conditions. […] The contact bioassays have been conducted as outlined in example 9.

Aedes Aegypti = test system: Aedes Aegypti
Source text: as §1

Culex quinque fasciatus = test system: Culex quinque fasciatus
Source text: as §1

CCN1OC[C@@H](NC(=O)c2ccc(C3=NO[C@@](c4cc(Cl)c(F)c(Cl)c4)(C(F)(F)F)C3)cc2C)C1=O [Reference crystalline spray, 4-[(5S)-5-(3,5-dichloro-4-fluorophenyl)-5-(trifluoromethyl)-4,5-dihydro-1,2-oxazol-3-yl]-N-[(4R)-2-ethyl-3-oxo-1,2-oxazolidin-4-yl]-2-methylbenzamide]
Mortality [%] Anopheles funestus 24 h (Anopheles funestus; 0.8 mg a.i./m^2): 0% | Mortality [%] Anopheles funestus 24 h (Anopheles funestus; 4 mg a.i./m^2): 30% | Mortality [%] Anopheles funestus 24 h (Anopheles funestus; 20 mg a.i./m^2): 90% | Mortality [%] Aedes Aegypti 24 h (Aedes Aegypti; 0.8 mg a.i./m^2): 0% | Mortality [%] Aedes Aegypti 24 h (Aedes Aegypti; 4 mg a.i./m^2): 89% | Mortality [%] Aedes Aegypti 24 h (Aedes Aegypti; 20 mg a.i./m^2): 100% | Mortality [%] Culex quinque fasciatus 24 h (Culex quinque fasciatus; 0.8 mg a.i./m^2): 25% | Mortality [%] Culex quinque fasciatus 24 h (Culex quinque fasciatus; 4 mg a.i./m^2): 88% | Mortality [%] Culex quinque fasciatus 24 h (Culex quinque fasciatus; 20 mg a.i./m^2): 100%

Reference: patent US12550894B2, “Insecticidal formulation for vector and pest control with increased contact efficacy” (priority 2018, dated 2026)
